“And” between values parts separate entries of the source, which are not always exact repeats. Equal values may be shown once. Read-outs that look alike come from different tables or passages of the source.

One data set relates to Botrytis cinerea. As to the kind of experiment: In vivo preventive test on Botrytis cinerea (grey mould). Particulars: 500 ppm; gherkin plants sprayed 24 hours before contamination; grading 4-5 days after contamination vs control plants. The procedure, abridged: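 Gherkin plants ("Vert petit de Paris") sprayed with compound at Z11 cotyledon stage, then inoculated 24 h later with B. cinerea spores (50 000/ml) in PDB/fructose/NH4NO3/KH2PO4 nutrient solution. Incubated at 17 °C, 80% RH; % efficacy versus solvent-treated controls graded 4–5 days after contamination.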

In a further data set the test system is Septoria tritici. As to the kind of experiment: In vivo preventive test on Septoria tritici (leaf spot on wheat). The following applies: 500 ppm; wheat plants sprayed 24 hours before contamination; grading 21 to 28 days after contamination vs control plants. The procedure, abridged: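 Scipion wheat at 1-leaf stage sprayed with compound, controls receiving acetone/tween/DMSO/water vehicle; 24 h later leaves inoculated with Septoria tritici spores (500 000 spores per ml). Efficacy (%) graded versus control plants 21 to 28 days after contamination.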

The format of data set [1] is physicochemical.
For the next data set, the system named is Sphaerotheca fuliginea. Put plainly: In vivo preventive test on Sphaerotheca fuliginea (powdery mildew on cucurbits). Particulars: 500 ppm; gherkin plants sprayed 24 hours before contamination; grading 12 days after contamination vs control plants. The protocol:
Gherkin plants (“Vert petit de Paris” variety), sown in starter cups on a 50/50 peat soil-pozzolana substrate and grown at 24° C., are treated at the Z11 cotyledon stage by spraying with the active ingredient prepared as described above. Plants, used as controls, are treated with the mixture of acetone/tween/DMSO/water not containing the active material. After 24 hours, the plants are contaminated by spraying the cotyledons with an aqueous suspension of Sphaerotheca fuliginea spores (100 000 spores per ml). The spores are collected from infected plants. […] Grading (% of efficacy) is carried out 12 days after the contamination, in comparison with the control plants.

The mark [2] stands for this setting: method [a]: HPLC/LC-MS on reversed phase at pH 2.7, 0.1% formic acid in water / acetonitrile, linear gradient 10% to 95% acetonitrile.
[3] abbreviates: HPLC on reversed phase columns, method [a]: pH 2.7, 0.1% formic acid in water / acetonitrile, linear gradient 10% to 95% acetonitrile.
[4] abbreviates: method [a]: HPLC/LC-MS on reversed phase at pH 2.7, 0.1% formic acid in water / acetonitrile, gradient 10% to 95% acetonitrile.

On to `CCn1cc(CNC(=O)C2(C)CC(c3cc4cc(Br)cnc4c(F)c3F)=NO2)c(C)n1` (stereo not drawn) [compound 17], for which the “% of efficacy (protection)” value in the data set on Botrytis cinerea is 100%; in the data set with Septoria tritici, 100%; in the data set on Sphaerotheca fuliginea, 85%. The “Log P” value in data set [1] (method [a]: HPLC/LC-MS on reversed phase at pH 2.7, 0.1% formic acid in water and acetonitrile, linear gradient 10% to 95% acetonitrile) is 2.69^[a].

In the case of `CCOCCCNC(=O)C1(C)CC(c2ccc3ncc(Br)cc3c2)=NO1` (stereo not drawn) [compound 32], the “% of efficacy (protection)” value with Botrytis cinerea was 98%; in the data set with Septoria tritici, 79% and 97%; in the data set with Sphaerotheca fuliginea, 100%. Besides, in data set [1] (setting [2]), the “log P” value was 2.69^[a].

On to `COc1cnc2ccc(C3=NOC(C)(C(=O)NC(C)C)C3)cc2c1` (stereo not drawn) [compound 53], for which the results for the “% of efficacy (protection)” value in the data set on Botrytis cinerea, in the data set with Septoria tritici and with Sphaerotheca fuliginea were 99%, 97% and 88%, respectively. Also, the “log P” value in data set [1] (setting [2]) was 2.08^[a].

In the case of `CCC1(C(=O)NC(C)C)CC(c2ccc3ncc(Br)cc3c2)=NO1` (stereo not drawn) [compound 66], the “% of efficacy (protection)” value came to 100% with Botrytis cinerea, 100% in the data set with Septoria tritici and 98% in the data set on Sphaerotheca fuliginea. The “log P” value in data set [1] (setting [2]) was 3.13^[a].

With `CCOCCCNC(=O)C1(CC)CC(c2ccc3ncc(Br)cc3c2)=NO1` (stereo not drawn) [compound 68], the results for the “% of efficacy (protection)” value with Botrytis cinerea, in the data set on Septoria tritici and with Sphaerotheca fuliginea were 98%, 97% and 98%, respectively. Also, the “log P” value in data set [1] (setting [2]) was 3.11^[a].

Consider `C#Cc1cnc2ccc(C3=NOC(C)(C(=O)NCc4cccnc4)C3)cc2c1` (stereo not drawn) [compound 103], for which the entries for the “% of efficacy (protection)” value in the data set on Botrytis cinerea, with Septoria tritici and in the data set on Sphaerotheca fuliginea were 98%, 75% and 78%, respectively. The “log P” value in data set [1] (setting [2]) is 1.26^[a].

Consider `C#Cc1cnc2ccc(C3=NOC(C)(C(=O)NC4CCC4)C3)cc2c1` (stereo not drawn) [compound 120], for which the “% of efficacy (protection)” value in the data set with Botrytis cinerea is 100%; with Septoria tritici it was 100%; in the data set with Sphaerotheca fuliginea it was 94%. Moreover, the “log P” value in data set [1] (setting [2]) is 2.58^[a].

Consider `C#Cc1cnc2ccc(C3=NOC(C)(C(=O)NCC4COC(C)(C)O4)C3)cc2c1` (stereo not drawn) [compound 125], for which the entries for the “% of efficacy (protection)” value in the data set with Botrytis cinerea, in the data set with Septoria tritici and in the data set with Sphaerotheca fuliginea were 100%, 100% and 98%, respectively. Besides, in data set [1] (setting [2]), the “log P” value is 2.35^[a].

With `C#Cc1cnc2ccc(C3=NOC(C)(C(=O)NCC4CCCO4)C3)cc2c1` (stereo not drawn) [compound 132], the “% of efficacy (protection)” value with Botrytis cinerea came to 98%; in the data set with Septoria tritici, 100%; with Sphaerotheca fuliginea, 94%. For the same compound, the “log P” value in data set [1] (setting [2]) is 2.17^[a].

Turning to `C#Cc1cnc2ccc(C3=NOC(C)(C(=O)NCc4cncn4C)C3)cc2c1` (stereo not drawn) [compound 155], the “% of efficacy (protection)” value in the data set on Botrytis cinerea was 100%; in the data set with Septoria tritici, 100%; in the data set with Sphaerotheca fuliginea, 89%. Further, in data set [1] (setting [2]), the “log P” value was 1.91^[a].

For `C#Cc1cnc2ccc(C3=NOC(C)(C(=O)NCc4cnn(Cc5ccccc5)c4)C3)cc2c1` (stereo not drawn) [compound 185], the “% of efficacy (protection)” value was 95% in the data set with Botrytis cinerea, 86% in the data set with Septoria tritici and 78% with Sphaerotheca fuliginea. The “log P” value in data set [1] (setting [2]) was 2.64^[a].

For `C#Cc1cnc2ccc(C3=NOC(C)(C(=O)NC4CC4C4CC4)C3)cc2c1` (stereo not drawn) [compound 216], the “% of efficacy (protection)” value in the data set with Botrytis cinerea is given as 99%; in the data set on Septoria tritici, 100%; with Sphaerotheca fuliginea, 98%. Further, the “log P” value in data set [1] (setting [2]) is 2.92^[a].

`CC(NC(=O)C1(C)CC(c2ccc3ncc(Br)cc3c2)=NO1)C1=NOCC1` (stereo not drawn) [compound 293]: the “% of efficacy (protection)” value is on record as 97% with Botrytis cinerea, 96% in the data set with Septoria tritici and 90% with Sphaerotheca fuliginea. The “log P” value in data set [1] (setting [3]) is 2.34[a].

As for `Cc1nc(C)c(C(C)NC(=O)C2(C)CC(c3ccc4ncc(Br)cc4c3)=NO2)s1` (stereo not drawn) [compound 296], the entries for the “% of efficacy (protection)” value in the data set on Botrytis cinerea, in the data set on Septoria tritici and in the data set on Sphaerotheca fuliginea were 97%, 100% and 100%, respectively. Moreover, the “log P” value in data set [1] (setting [3]) is 2.46[a].

`C#Cc1cnc2ccc(C3=NOC(C)(C(=O)Nc4cnn(C)c4)C3)cc2c1` (stereo not drawn) [compound 462]: the “% of efficacy (protection)” value is 98% in the data set on Botrytis cinerea, 100% in the data set with Septoria tritici and 98% in the data set with Sphaerotheca fuliginea. In addition, the “log P” value in data set [1] (setting [4]) is 1.98[a].

As to `C#Cc1cnc2ccc(C3=NOC(C)(C(=O)NOC(C)C4CC4)C3)cc2c1` (stereo not drawn) [compound 471], the “% of efficacy (protection)” value in the data set with Botrytis cinerea worked out at 89%; in the data set with Septoria tritici, 97%; in the data set on Sphaerotheca fuliginea, 98%. In addition, the “log P” value in data set [1] (setting [4]) was 2.43[a].

`C#Cc1cnc2ccc(C3=NOC(OC)(C(=O)N(O)C(C)C)C3)cc2c1` (stereo not drawn) [compound 475]: the “% of efficacy (protection)” value in the data set on Botrytis cinerea was 100%; with Septoria tritici, 83%; in the data set with Sphaerotheca fuliginea it was 88%. Besides, the “log P” value in data set [1] (setting [4]) is 2.08[a].

As to `COC1(C(=O)NCC2COC(C)(C)O2)CC(c2ccc3ncc(I)cc3c2)=NO1` (stereo not drawn) [compound 483], the “% of efficacy (protection)” value with Botrytis cinerea, with Septoria tritici and with Sphaerotheca fuliginea was 100% in each case. The “log P” value in data set [1] (setting [4]) is 2.73[a].

As for `COC1(C(=O)NCC2COC(C)(C)O2)CC(c2ccc3ncc(Br)cc3c2)=NO1` (stereo not drawn) [compound 496], the “% of efficacy (protection)” value in the data set with Botrytis cinerea is 99%; in the data set on Septoria tritici, 100%; with Sphaerotheca fuliginea, 100%. Further, the “log P” value in data set [1] (setting [4]) is 2.62[a].

Regarding `COC1(C(=O)NC2CC2)CC(c2ccc3ncc(Br)cc3c2)=NO1` (stereo not drawn) [compound 508], the “% of efficacy (protection)” value with Botrytis cinerea is recorded as 100%; in the data set with Septoria tritici it was 94%; with Sphaerotheca fuliginea, 98%. The “log P” value in data set [1] (setting [4]) was 2.35[a].

For `C#Cc1cnc2ccc(C3=NOC(OC)(C(=O)NC(C)CC(=O)OC)C3)cc2c1` (stereo not drawn) [compound 512], the “% of efficacy (protection)” value is 98% in the data set on Botrytis cinerea, 97% in the data set with Septoria tritici and 97% in the data set on Sphaerotheca fuliginea. Moreover, the “log P” value in data set [1] (setting [3]) is 2.28[a].

As for `C#Cc1cnc2ccc(C3=NOC(C)(C(=O)NC(CC)COC)C3)cc2c1` (stereo not drawn) [compound 524], the “% of efficacy (protection)” value with Botrytis cinerea is 100%; in the data set on Septoria tritici, 93%; in the data set on Sphaerotheca fuliginea, 93%. In addition, the “log P” value in data set [1] (setting [3]) is 2.58[a].

With `C#Cc1cnc2ccc(C3=NOC(C)(C(=O)NCC)C3)cc2c1` (stereo not drawn) [compound 527], the “% of efficacy (protection)” value with Botrytis cinerea stood at 100%; in the data set with Septoria tritici, 97%; in the data set on Sphaerotheca fuliginea, 94%. Moreover, in data set [1] (setting [3]), the “log P” value was 2.12[a].

`C#Cc1cnc2ccc(C3=NOC(C)(C(=O)NC)C3)cc2c1` (stereo not drawn) [compound 531]: the “% of efficacy (protection)” value is given as 100% in the data set with Botrytis cinerea, 100% in the data set with Septoria tritici and 98% in the data set with Sphaerotheca fuliginea. For the same compound, in data set [1] (setting [3]), the “log P” value is 1.84[a].

In the case of `CNC(=O)C1(C)CC(c2ccc3ncc(Br)cc3c2)=NO1` (stereo not drawn) [compound 532], the “% of efficacy (protection)” value in the data set with Botrytis cinerea was determined as 100%; in the data set with Septoria tritici, 100%; in the data set on Sphaerotheca fuliginea, 89%. Also, in data set [1] (setting [3]), the “log P” value was 2.07[a].

Consider `CCCn1cc(CNC(=O)C2(C)CC(c3cc(C)c4ncc(Br)cc4c3)=NO2)c(C)n1` (stereo not drawn) [compound 534], for which the “% of efficacy (protection)” value came out at 100% in the data set with Botrytis cinerea, 92% in the data set on Septoria tritici and 100% with Sphaerotheca fuliginea. Besides, in data set [1] (setting [3]), the “log P” value is 3.29[a].

Consider `C#Cc1cnc2c(C)cc(C3=NOC(C)(C(=O)NCc4cnc(C)cn4)C3)cc2c1` (stereo not drawn) [compound 535], for which the “% of efficacy (protection)” value with Botrytis cinerea, with Septoria tritici and with Sphaerotheca fuliginea was 100% each time. In addition, the “log P” value in data set [1] (setting [3]) is 2.50[a].

On to `Cc1cc(C2=NOC(C)(C(=O)NCC3COC(C)(C)O3)C2)cc2cc(Br)cnc12` (stereo not drawn) [compound 538], for which the “% of efficacy (protection)” value in the data set on Botrytis cinerea, in the data set with Septoria tritici and in the data set on Sphaerotheca fuliginea was 100% each time. The “log P” value in data set [1] (setting [3]) was 3.39[a].

As to `CC1(C)OCC(CNC(=O)C2(C)CC(c3cc(Cl)c4ncc(Br)cc4c3)=NO2)O1` (stereo not drawn) [compound 540], the “% of efficacy (protection)” value in the data set with Botrytis cinerea stood at 100%; in the data set on Septoria tritici it was 92%; with Sphaerotheca fuliginea it was 94%. The “log P” value in data set [1] (setting [3]) is 3.17[a].

With `CC(C)NC(=O)C1(C)CC(c2cc(Cl)c3ncc(Br)cc3c2)=NO1` (stereo not drawn) [compound 541], the “% of efficacy (protection)” value with Botrytis cinerea amounted to 100%; in the data set on Septoria tritici, 100%; in the data set on Sphaerotheca fuliginea, 98%. The “log P” value in data set [1] (setting [3]) is 3.29[a].
